Holding throughout (assay type): physicochemical
Data set [1] can be described thus: hygroscopicity of the isolated solid. The following applies: isolated solid material, compared with the corresponding free acid. Here is the method: (1) The compound of Formula (I) is isolable as a highly pure solid material (purity of about at least 98% as determined by HPLC) and is a non-hygroscopic material as compared with the corresponding free acid (compound of Formula (V), which is obtained as syrupy material).
The precipitated solid was filtered under suction and the wet cake was washed with chilled acetone (400 ml). The non-hygroscopic solid was dried under vacuum at 40° C. for 1 hour to provide off-white colored material (sodium salt of (2S,5R)-6-benzyloxy-7-oxo-1,6-diaza-bicyclo{3.2.1}-octane-2-carboxylic acid) in 135 gm (89%, calculation adjusted for 70% purity of free acid) quantity.

Data set [2] is described as follows: stability study on storage at room temperature (purity by HPLC).
Data set [3] is described as follows: stability of the free acid on storage (attempts to prepare this compound). Conditions: syrupy in nature. An excerpt: The compound of Formula (V) i.e. (2S,5R)-6-benzyloxy-7-oxo-1,6-diaza-bicyclo[3.2.1]octane-2-carboxylic acid is disclosed in International Patent Application No. PCT/FR01/02418. […] US Patent Publication No. 20100197928 discloses a procedure to prepare a diastereomeric mixture of (S)-5-benzyloxyamino-piperidin-2-carboxylic acid benzyl ester as an oxalate salt in 50:50 ratio.

Molecules are shown by their SMILES.

As to `O=C([O-])[C@@H]1CC[C@@H]2CN1C(=O)N2OCc1ccccc1.[Na+]` [Formula (I), sodium salt of (2S,5R)-6-benzyloxy-7-oxo-1,6-diaza-bicyclo[3.2.1]octane-2-carboxylic acid], in data set [1], the hygroscopicity entry was “non-hygroscopic”. The “purity as analyzed by HPLC, initial purity” value in data set [2] (stability study, room temperature, initial) is given as 99.75%. Besides, the stability on storage result in data set [2] (storage at room temperature for three months) is recorded as “excellent stability”. In addition, the “purity as analyzed by HPLC, purity after three months” value in data set [2] (storage at room temperature, after three months) worked out at 99.66%. Also, the “purity as analyzed by HPLC, purity after two moths” value in data set [2] (storage at room temperature, after two moths) was 99.69%.

Regarding `O=C(O)[C@@H]1CC[C@@H]2CN1C(=O)N2OCc1ccccc1` [Formula (V), (2S,5R)-6-benzyloxy-7-oxo-1,6-diaza-bicyclo[3.2.1]octane-2-carboxylic acid], in data set [3], the stability on storage entry is recorded as “unstable”.

The record behind these values is patent US9862718B2, “Sodium salt of (2S, 5R)-6-benzyloxy-7-oxo-1,6-diaza-bicyclo [3.2.1] octane-2-carboxylic acid and its preparation” (WOCKHARDT LIMITED, priority 2013, dated 2018).
